Measurements reported in US7972793B2, “Methods and compositions for the treatment of psychotic disorders through the identification of the SULT4A1-1 haplotype” (Suregene, LLC, priority 2009, dated 2011).
Like-named read-outs stand apart in the source and are kept apart here. Marks after values point to notes of the source that are not given here.

Legend:
[1] = test system: CATIE Caucasian schizophrenia patients; test: CATIE Phase 1 drug response: change in total PANSS (LOCF), drug switchers, segmented by SULT4A1-1 status; type: in vivo, human; conditions: for ≦−20% (number of individuals with this percent change in total PANSS; responders) / ≧−20% (number of individuals with this percent change in total PANSS; non-responders): CATIE Caucasians, LOCF
Excerpt: There are several different metrics for quantifying response in clinical trials of antipsychotic medications. The most commonly used psychometric instrument is the Positive and Negative Syndrome Scale (PANSS), a 30-item semi-quantitative instrument scored by clinical professionals (Kay et al., 1987). The greater the decrease in PANSS score, the better the clinical response. The most direct measure of clinical response is absolute change in PANSS score. In addition to absolute change, the improvement is often reported as a percentage change from baseline PANSS score.
A decrease of at least 20% in total PANSS is one commonly used threshold for response (Leucht et al., 2009).
The design of the CATIE study has been described in detail by others (Lieberman et al., 2005; Stroup et al., 2003). […] A total of 738 subjects consented to provide DNA for genetic study. […] Retrospective genetic analyses, judged to be exempt from human studies requirements by an IRB, were conducted in the current study.
All tested patients were studied using well established clinical endpoints comparing baseline, intermediate, and last observation carried forward (LOCF) for the PANSS scores using CATIE data. LOCF analysis is a commonly used clinical endpoint for clinical trials for neuropsychiatric drugs, with changes in PANSS scores of between negative 20% and negative 30% used as typical endpoints to indicate clinically significant response (Leucht et al., 2009). To remove time on drug as a variable for the CATIE trial, analysis was limited to only those patients who were randomized to a different drug following the initial washout period (drug switchers).
As mentioned previously, the mean change in absolute or percent PANSS provides an important measure of efficacy in patients undergoing antipsychotic treatments. Indeed, many pivotal trials in the psychosis field used absolute and/or percentage change in PANSS Score as the primary endpoint (Leucht et al., 2009). […] Therefore, in addition to examining a categorical definition of clinically significant response, the inventors determined the impact of segmentation by SULT4A1-1 status on the quantitative measure of clinical improvement—delta PANSS.

[2] = test system: CATIE Phase I non-responders; conditions: CATIE Phase II, LOCF; for Responders (number): decrease PANSS ≧ 20%
[3] = test system: patients, unsegmented populations; conditions: Meta-analysis, Leucht et al. (2009); cited from earlier work
[4] = test system: patients, populations not segmented by SULT4A1-1 status; conditions: meta-analysis, Leucht et al. (2009); negative = greater reduction in PANSS; cited from earlier work
[5] = test system: CATIE Caucasian schizophrenia patients; test: Time to discontinuation for all causes in the CATIE study; type: in vivo, human; conditions: SULT4A1-1 Negative
Excerpt: The primary endpoint for the CATIE study was time to discontinuation for all causes (Lieberman et al., 2005). Thus the inventors evaluated the effect of SULT41-1 status on this important parameter.

[6] = test system: patients, unsegmented populations; conditions: first generation antipsychotics; Davis et al. (2003); cited from earlier work
CATIE Caucasian subjects = test: Rate of hospitalization due to exacerbation of psychosis in CATIE by SULT4A1-1 status; type: in vivo, human; conditions: CATIE Phases 1, 2 and/or 3
Excerpt: For this analysis, the inventors assigned a dichotomous value (positive or negative) for hospitalization status to subjects in each phase of the trial based on only the first hospitalization event for a given patient in that phase.

[7] = test system: CATIE African American schizophrenia patients; test: CATIE drug response: change in total PANSS (LOCF), segmented by SULT4A1-1 status, African Americans; type: in vivo, human
Procedure: The design of the CATIE study has been described in detail by others (Lieberman et al., 2005; Stroup et al., 2003). […] A total of 738 subjects consented to provide DNA for genetic study. […] Retrospective genetic analyses, judged to be exempt from human studies requirements by an IRB, were conducted in the current study. All tested patients were studied using well established clinical endpoints comparing baseline, intermediate, and last observation carried forward (LOCF) for the PANSS scores using CATIE data. […] To remove time on drug as a variable for the CATIE trial, analysis was limited to only those patients who were randomized to a different drug following the initial washout period (drug switchers).

[8] = Table 16, 20% decrease in PANSS threshold, SULT4A1-1 positive group (sign not given)

Compound: OCCOCCN1CCN(C2=Nc3ccccc3Sc3ccccc32)CC1 [Quetiapine]
- Mean Difference in Total PANSS Score, Olanzapine vs. labelled drug ([1]; CATIE SULT4A1-1 −): −3.8
- Mean Difference in Total PANSS Score, Olanzapine vs. labelled drug ([1]; CATIE unsegmented): −6.2
- ≦−20% (number of individuals with this percent change in total PANSS; responders) ([1]; SULT4A1-1 Negative): 13
- ≧−20% (number of individuals with this percent change in total PANSS; non-responders) ([1]; SULT4A1-1 Negative): 50
- ≦−20% (number of individuals with this percent change in total PANSS; responders) ([1]; SULT4A1-1 Positive): 7
- ≧−20% (number of individuals with this percent change in total PANSS; non-responders) ([1]; SULT4A1-1 Positive): 11
- Non Responder (number) [1, 8]: 11
- Responder (number) [1, 8]: 7
- Nonresponders (number) ([2]; SULT4A1-1 Negative): 10
- Responders (number) ([2]; SULT4A1-1 Negative): 1
- Nonresponders (number) ([2]; SULT4A1-1 Positive): 1
- Responders (number) ([2]; SULT4A1-1 Positive): 0
- Mean Difference in Total PANSS Score, Olanzapine vs. labelled drug [3]: −3.7
- Effect Size vs. Placebo [4]: −0.42
- Time to discontinuation, mean time in months [5]: 8.6*** Months
- Effect Size vs. FGA [6]: 0.01
- HOSP (number of subjects hospitalized) (CATIE Caucasian subjects; SULT4A1-1 Positive): 1
- HOSP (rate of hospitalization) (CATIE Caucasian subjects; SULT4A1-1 Positive): (2.9%)
- HOSP (number of subjects hospitalized) (CATIE Caucasian subjects; SULT4A1-1 negative): 24
- HOSP (rate of hospitalization) (CATIE Caucasian subjects; SULT4A1-1 negative): (19.5%)
- HOSP (number of subjects hospitalized) (CATIE Caucasian subjects; Unsegmented): 25
- ≦−20% (number of individuals; responders) ([7]; SULT4A1-1 Negative): 9
- ≧−20% (number of individuals; non-responders) ([7]; SULT4A1-1 Negative): 25
- ≦−20% (number of individuals; responders) ([7]; SULT4A1-1 Positive): 2
- ≧−20% (number of individuals; non-responders) ([7]; SULT4A1-1 Positive): 4
